# Measured values published in patent publication US20160310512A1, “THERAPY REGIMEN FOR TREATING SEVERE ACNE RELATED DISEASES” (GALDERMA RESEARCH & DEVELOPMENT, priority 2013, published 2016).
# Legend:
# [1] = when combined with BPO; unlike tretinoin; cited from earlier work
# severe acne vulgaris [2] = assay: Multi-center randomized investigator-blind clinical study, 20 weeks: efficacy on acne lesions, nodules and atrophic scars; assay type: in vivo, human; conditions: for Atrophic acne scar count (Mean ± SD): half face
# Experimental: This example was the first study evaluating the concomitant use of these treatments.
# Isotretinoin is administrated under capsule form (of 40 mg and/or 10 mg each). The quantity administrated was calculated according to patient weight and treatment duration in order to finally administrate a dosage of 0.5 mg/kg for the first 4 weeks of treatment and 1 mg/kg for the 16 remaining weeks.
# This study was conducted as a multi-center, randomized, investigator-blind, controlled and parallel group trial. This non-inferiority study involved subjects of any race, aged 12 to 35 years inclusive with severe acne and meeting specific eligibility criteria.
# Subjects were randomized at baseline and treated for 20 weeks with either Adapalene-BPO gel associated with oral doxycycline or its vehicle gel associated with oral Isotretinoin.
# A total of 266 subjects were enrolled across 29 centres in Canada. Of which, 217 subjects were included in the analysis-per-protocol (PP) populations (all randomized subjects without any major protocol deviations) for primary endpoint analysis. All other endpoints were analysed with population-intent-to-treat (ITT) (all randomized subjects who were dispensed study medication) (N=266).
# For efficacy variables, in order to evaluate the effect of major deviations or of data exclusions, the ITT population were analyzed at each visit using the last observation carried forward (LOCF) to impute missing values. If no post-baseline data was available, baseline was carried forward. […] The other missing values were not replaced (observed data).
# (§1) Reduction of at least 75% of number of nodules at the end of treatment
# Other secondary efficacy endpoints were the percent change from baseline visit in Total lesion counts, Inflammatory lesion counts, Nodule counts, and the total atrophic acne scar counts.
# severe acne vulgaris [3] = assay: Same clinical study: composite overall success (efficacy + safety); assay type: in vivo, human
# Text: To achieve this objective, a primary outcome, overall success, was defined as a composite endpoint including efficacy and safety measurements.
# Overall success was deemed to be reached when the 2 following criteria were fulfilled:
# as §1
# P. acnes = P. acnes presence by UV fluorescence photography (Visia system), subset of 40 subjects; assay type: in vivo
# Experimental: Atrophic acne scar counts were conducted on half the face and the presence of P. acnes were also assessed by UV fluorescence photography (Visia® system—Canfield Scientific, Inc.). […] As few centers were equipped with this system, this test was performed on a subset of only 40 subjects.
# [4] = ITT Observed population, count (%)
# [5] = APT, Very Bothered at least 1 Month + Persisting at least 2 Weeks + At least 1 episode
# [6] = ITT observed, chelitis, xerosis, erythema, dry mouth, pruritus, epistaxis, conjunctivitis, eye irritation, dry eye
# [7] = ITT observed, lip balm, moisturizer, cleanser, cosmetics not counted
# [8] = ITT observed, phototoxicity, allergic skin/eczematous reaction, candida vaginitis
# [9] = ITT observed, study termination at subject's request motivated by treatment concern
smiles,measurement,setting,value
"COc1ccc(-c2ccc3cc(C(=O)O)ccc3c2)cc1C12CC3CC(CC(C3)C1)C2 [Adapalene, 6-[3-(1-adamantyl)-4-methoxyphenyl]-2-naphtoic acid]",stability in the presence of light,[1],stable
"CC1=C(/C=C/C(C)=C/C=C/C(C)=C\C(=O)O)C(C)(C)CCC1 [Vehicle + Isotretinoin, 13-cis-retinoic acid]","Efficacy failure (nodule reduction <75%), Event",severe acne vulgaris [2]; ITT observed,2 n
same,"Efficacy failure (nodule reduction <75%), Subject",severe acne vulgaris [2]; ITT observed,"2 (1.6%) n, %"
same,Efficacy Success (nodule reduction >75%),"severe acne vulgaris [2]; PP population, end of 20-week treatment",110 (98.2%) patients (%)
same,Atrophic acne scar count (Mean ± SD),severe acne vulgaris [2]; W12-LOCF (ITT),16.7 ± 15.7
same,Atrophic acne scar count (Mean ± SD),severe acne vulgaris [2]; W20-LOCF (ITT),16.1 ± 16.7
same,"Inflammatory lesions (Median) (not including nodules), % change","severe acne vulgaris [2]; Week 20, ITT LOCF",−95%
same,"Nodules (Mean), % change","severe acne vulgaris [2]; Week 20, ITT LOCF",−96%
same,"Total lesion counts (Median), % change","severe acne vulgaris [2]; Week 20, ITT LOCF",−93%
same,acne lesion outcomes compared to Adapalene-BPO+Doxycycline (in words),"severe acne vulgaris [2]; Week 20, most of the acne lesion outcomes",superior
same,Overall success: Failure,severe acne vulgaris [3]; [4],52 (41.6%)
same,Overall success: Success,severe acne vulgaris [3]; [4],73 (58.4%)
same,Overall Success,"severe acne vulgaris [3]; PP population, 20 weeks",65 (58.0%) patients (%)
same,Overall success: Failure,"severe acne vulgaris [3]; PP population, count (%)",47 (42.0%)
same,"composite endpoint (efficacy and safety), overall success","severe acne vulgaris [3]; intent-to-treat population, p=0.125",54.9%
same,"composite endpoint (efficacy and safety), overall success","severe acne vulgaris [3]; per-protocol population, p=0.014",58%
same,"P. acnes fluorescence, median percent change",P. acnes; week 2,+14.1%
same,P. acnes reduction (in words),P. acnes; week 20,in favor of ISO
same,"Clinically significant lab abnormality, Evt",APT,6 n
same,"Clinically significant lab abnormality, Subj.",APT,4 (3.0%) n (%)
same,"Related AE requiring a prescription of a concomitant medical treatment, Evt",APT,34 n
same,"Related AE requiring a prescription of a concomitant medical treatment, Subj.",APT,27 (25.6%) n (%)
same,"Related AEs deemed as safety failure, Subj.",APT,45 (33.8%) n (%)
same,"Related AEs leading to discontinuation, Evt",APT,5 n
same,"Related AEs leading to discontinuation, Subj.",APT,4 (3.0%) n (%)
same,"Related AEs, Evt",APT,299 n
same,"Related AEs, Subj. with at least one event",APT,117 (88.0%) n (%)
same,"Related serious AEs, Evt",APT,1 n
same,"Related serious AEs, Subj.",APT,1 (0.8%) n (%)
same,"Related severe AEs, Evt",APT,5 n
same,"Related severe AEs, Subj.",APT,5 (3.8%) n (%)
same,subjects reporting at least 1 related AE,APT,88%
same,subjects with related AEs deemed as a safety failure (AEs of special management concern),APT,33.8%
same,"Other medically relevant related AEs, Evt",[5],35 n
same,"Other medically relevant related AEs, Subj.",[5],23 (17.3%) n (%)
same,"Related AEs deemed as safety failure, Evt","APT, each AE counted once",73 n
same,"Clinically significant lab abnormality, Event",ITT observed,6 n
same,"Clinically significant lab abnormality, Subject",ITT observed,"4 (3.2%) n, %"
same,"Inability to escalate to Iso 1 mg/kg/day, Event",ITT observed,5 n
same,"Inability to escalate to Iso 1 mg/kg/day, Subject",ITT observed,"5 (4.0%) n, %"
same,"Necessity of oral drug downward dose adjustment, Event",ITT observed,2 n
same,"Necessity of oral drug downward dose adjustment, Subject",ITT observed,"2 (1.6%) n, %"
same,"Related AE leading to discontinuation, Event",ITT observed,5 n
same,"Related AE leading to discontinuation, Subject",ITT observed,"4 (3.2%) n, %"
same,"Related SAE, Event",ITT observed,1 n
same,"Related SAE, Subject",ITT observed,"1 (0.8%) n, %"
same,"Related Severe AE, Event",ITT observed,5 n
same,"Related Severe AE, Subject",ITT observed,"5 (4.0%) n, %"
same,"Safety Failure, Event",ITT observed,95 n
same,"Safety Failure, Subject",ITT observed,"50 (40.0%) n, %"
same,subjects with safety failure,ITT observed,40.0%
same,"Predefined related AE Very Bothered, at least 1 Month, Event",[6],2 n
same,"Predefined related AE Very Bothered, at least 1 Month, Subject",[6],"2 (1.6%) n, %"
same,"Related AE requiring a prescription of a concomitant medical treatment, Event",[7],34 n
same,"Related AE requiring a prescription of a concomitant medical treatment, Subject",[7],"27 (21.6%) n, %"
same,"Predefined related AE for at least 1 episode, Event",[8],21 n
same,"Predefined related AE for at least 1 episode, Subject",[8],"15 (12.0%) n, %"
same,"Subject's treatment concern, Event",[9],2 n
same,"Subject's treatment concern, Subject",[9],"2 (1.6%) n, %"
same,Safety Success (absence of medically relevant events),"PP population, 20 weeks",67 (59.8%) patients (%)
